Reference: PubChem BioAssay AID1845198 (Molecular Pharmacology Branch, DTP, NCI, 2023)
pIC50: −log10 of the molar value.

Test system: 425362-245-T-J1 tumor spheroids, viability % test/control
Assay: Anticancer human tumor 425362-245-T-J1 patient-derived melanoma cell line growth inhibition
Details: spheroids with HUVEC and MSC; for pIC50: curve of first compound; for viability, T/C: stronger effect = lower value
Description: Multicellular complex tumor spheroid response to DNA repair inhibitors in combination with DNA-damaging drugs
This study explores the anticancer activities of DNA-damaging drugs and inhibitors of DNA damage repair, both as single agents and in combinations. Complex tumor spheroids comprised of malignant cells, endothelial cells and mesenchymal stem cells served as an in vitro model for human solid tumors. This model system incorporates physiologically relevant features and patient-derived or established malignant cell lines with clinically relevant genetic alterations from many tumor types. Twenty-six patient-derived or established malignant cell lines were evaluated representing sarcoma, melanoma, small cell lung cancer (SCLC), non-small cell lung cancer (NSCLC), as well as bladder, ovarian and pancreatic cancers. The concentration ranges selected for each drug and investigational agent were based upon clinically achievable concentrations if the clinical Cmax of the agent was known.
Compounds. The drugs and compounds olaparib (NSC753686), talazoparib (NSC767125), berzosertib (NSC777718), elimusertib (NSC800525), nedisertib (NSC802822), VX-984 (NSC792969), AZD-1390 (NSC803789), temozolomide (NSC362856), topotecan (NSC609699), trabectedin (NSC813783), staurosporine (NSC755774), and gemcitabine (NSC613327) were obtained from the National Cancer Institute (NCI) Developmental Therapeutics Program Chemical Repository. The FDA-approved anticancer drug set is available from the Developmental Therapeutics Program at https://dtp.cancer.gov/organization/dscb/obtaining/available_plates.htm. […] The stock solutions were prepared in dimethyl sulfoxide (DMSO, Sigma-Aldrich, St. Louis, MO, cat. D2650) at 400-fold the tested concentration and stored at -70 degrees C. Prior to their use, the stock solutions were diluted in fresh medium and the final DMSO concentration in the assay was 0.25% (v/v). All drugs and investigational agents were tested over a range starting from a high concentration at or near the clinical Cmax and decreasing in half-log increments. If the clinical Cmax for an agent had not been determined, the highest concentration tested was 10 microM.
Cell Lines. The patient-derived cancer cell (PDC) lines: 156681-154-R-J1-PDC, 283228-195-R-J1-PDC, 287954-098-R-J1-PDC, 292921-168-R-J2-PDC, 349418-098-R-PDC, 425362-245-T-J1-PDC, 556581-035-R-J1-PDC, and BL0293-F563-PDC were received from the NCI Patient-Derived Models Repository (PDMR, https://pdmr.cancer.gov). The established cell lines HS-SY-2 (RRID:CVCL_8719), MPNST, and SYO-1 (RRID:CVCL_7146) were obtained from the Sloan Kettering Institute. The alveolar soft parts sarcoma cell line ASPS-1 (RRID:CVCL_S738) was established at the NCI and grown from internal seed stocks. The following established cell lines were purchased from the American Type Culture Collection (ATCC, Manassas, VA): G-401 (ATCC, cat. CRL-1441, RRID:CVCL_0270), SW982 (ATCC, cat. HTB-93, RRID:CVCL_1734), VA-ES-BJ (ATCC, cat. CRL-2138, RRID:CVCL_1785), NCI-H719 (ATCC, cat. CRL-5837, RRID:CVCL_1582), NCI-H196 (ATCC, cat. CRL-5823, RRID:CVCL_1509), NCI-H841 (ATCC, cat. CRL-5845, RRID:CVCL_1595), NCI-H1618 (ATCC, cat. CRL-5879, RRID:CVCL_1480), NCI-H1876 (ATCC, cat. CRL-5902, RRID:CVCL_1503), DMS 114 (ATCC, cat. CRL-2066; RRID:CVCL_1174), NCI-H211 (ATCC, cat. CRL-5824; RRID:CVCL_1529), and SW 1271 (ATCC, cat. CRL-2177, RRID:CVCL_1716). The small cell lung cancer cell line COR-L88 was purchased from Sigma-Aldrich (cat. 92031917-1VL, RRID:CVCL_1141). The non-small cell lung cancer cell lines NCI-H226 (RRID:CVCL_1544) and NCI-H322M (RRID:CVCL_1557) were established at the NCI and grown from internal seed stocks. Pooled donor human umbilical vein endothelial cells (HUVEC, Lonza, cat. CC-2519) and human mesenchymal stem cells (hMSC, Lonza, cat. PT-2501) were purchased from Lonza (Walkersville, MD).
Cell Culture. All cells were maintained in an incubator at 37 degrees C and 5% CO2 with 95% humidity. […]

[1] = second compound 30 pM, first compound 0.0316 µM
[2] = second compound 30 pM, first compound 0.1 µM
[3] = second compound 30 pM, first compound 0.316 µM
[4] = second compound 30 pM, first compound 1 µM
[5] = second compound 30 pM, first compound 3.16 µM
[6] = second compound 30 pM, first compound 10 µM
[7] = second compound 94.9 pM, first compound 0.0316 µM
[8] = second compound 94.9 pM, first compound 0.1 µM
[9] = second compound 94.9 pM, first compound 0.316 µM
[10] = second compound 94.9 pM, first compound 1 µM
[11] = second compound 94.9 pM, first compound 3.16 µM
[12] = second compound 94.9 pM, first compound 10 µM
[13] = second compound 0.0003 µM, first compound 0.0316 µM
[14] = second compound 0.0003 µM, first compound 0.1 µM
[15] = second compound 0.0003 µM, first compound 0.316 µM
[16] = second compound 0.0003 µM, first compound 1 µM
[17] = second compound 0.0003 µM, first compound 3.16 µM
[18] = second compound 0.0003 µM, first compound 10 µM
[19] = second compound 0.000949 µM, first compound 0.0316 µM
[20] = second compound 0.000949 µM, first compound 0.1 µM
[21] = second compound 0.000949 µM, first compound 0.316 µM
[22] = second compound 0.000949 µM, first compound 1 µM
[23] = second compound 0.000949 µM, first compound 3.16 µM
[24] = second compound 0.000949 µM, first compound 10 µM
[25] = second compound 0.003 µM, first compound 0.0316 µM
[26] = second compound 0.003 µM, first compound 0.1 µM
[27] = second compound 0.003 µM, first compound 0.316 µM
[28] = second compound 0.003 µM, first compound 1 µM
[29] = second compound 0.003 µM, first compound 3.16 µM
[30] = second compound 0.003 µM, first compound 10 µM
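Note: spheroids exposed to agents for 7 days.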
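Throughout, for viability, T/C: 100% = DMSO vehicle control viability.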

Row | Structure (SMILES) | pIC50 (second compound 30 pM) | pIC50 (second compound 94.9 pM) | pIC50 (second compound 0.0003 µM) | pIC50 (second compound 0.000949 µM) | pIC50 (second compound 0.003 µM) | viability, T/C [1] [%] | viability, T/C [2] [%] | viability, T/C [3] [%] | viability, T/C [4] [%] | viability, T/C [5] [%] | viability, T/C [6] [%] | viability, T/C [7] [%] | viability, T/C [8] [%] | viability, T/C [9] [%] | viability, T/C [10] [%] | viability, T/C [11] [%] | viability, T/C [12] [%] | viability, T/C [13] [%] | viability, T/C [14] [%] | viability, T/C [15] [%] | other results
1 | COc1ccc([C@@H](O)c2cc(-c3ncnc4cc(N5CCOCC5)ccc34)c(F)cc2Cl)nn1 + COc1cc2c(cc1O)CCNC21CSC2c3c(OC(C)=O)c(C)c4c(c3C(COC1=O)N1C(O)C3Cc5cc(C)c(OC)c(O)c5C(C21)N3C)OCO4 | 5.83 | 6.05 | > 7.50 | > 7.50 | > 7.50 | 94.5 | 108 | 93.6 | 58.5 | 32.7 | 15.9 | 91 | 91.2 | 84.3 | 44.4 | 26.5 | 14.2 | 49.2 | 42.5 | 36.6 | viability, T/C [16]: 3.35%; viability, T/C [17]: 0.22%; viability, T/C [18]: 0.19%; viability, T/C [19]: 0.4%; viability, T/C [20]: 0.23%; viability, T/C [21]: 0.14%; viability, T/C [22]: 0.08%; viability, T/C [23]: 0.05%; viability, T/C [24]: 0.22%; viability, T/C [25]: 0.28%; viability, T/C [26]: 0.35%; viability, T/C [27]: 0.35%; viability, T/C [28]: 0.33%; viability, T/C [29]: 0.3%; viability, T/C [30]: 0.39%
2 | Cc1cc(C)c(CNC(=O)c2cc(-c3ccc(CN4CCOCC4)cc3)cc3c2cnn3C2CCCC2)c(=O)[nH]1 + COc1cc2c(cc1O)CCNC21CSC2c3c(OC(C)=O)c(C)c4c(c3C(COC1=O)N1C(O)C3Cc5cc(C)c(OC)c(O)c5C(C21)N3C)OCO4 | < 5.00 | < 5.00 | > 7.50 | > 7.50 | > 7.50 | 81.9 | 97.4 | 97.5 | 102 | 85.7 | 61.4 | 84.3 | 87.3 | 92.9 | 88.2 | 81.9 | 64.3 | 44.9 | 40 | 59.9 | viability, T/C [16]: 39.5%; viability, T/C [17]: 34.4%; viability, T/C [18]: 25.5%; viability, T/C [19]: 0.31%; viability, T/C [20]: 0.35%; viability, T/C [21]: 0.34%; viability, T/C [22]: 0.33%; viability, T/C [23]: 0.21%; viability, T/C [24]: 0.26%; viability, T/C [25]: 0.3%; viability, T/C [26]: 0.32%; viability, T/C [27]: 0.3%; viability, T/C [28]: 0.25%; viability, T/C [29]: 0.25%; viability, T/C [30]: 0.26%
